Paper PMC5473940, “SAF-A Regulates Interphase Chromosome Structure through Oligomerization with Chromatin-Associated RNAs” (Cell, 2017)

Legend:
Assay type in all cases: binding
[1] = biological target: T1, SAF-A AAA+ domain (His-tagged AAA+ fragment) (Homo sapiens, UniProt Q00839, K510A, form not given); test: intrinsic fluorescence quenching (ex […] nm, em […] nm); details: pH 7.5, 37 °C, 10 mM MgCl2, 125 mM NaCl, 5 mM DTT; Walker A mutant
T1 construct: gene HNRNPU; AAA+ domain fragment, N-terminal 6xHis in pET32a, E. coli BL21(DE3); exact borders not in text (AAA domain modelled as aa 469-653)

[2] = biological target: T2, SAF-A AAA+ domain (His-tagged AAA+ fragment) (Homo sapiens, UniProt Q00839); test: as above
T2 construct: gene HNRNPU; AAA+ domain fragment, N-terminal 6xHis in pET32a, E. coli BL21(DE3); exact borders not in text (AAA domain modelled as aa 469-653)

[3] = biological target: T3, SAF-A AAA+ domain (His-tagged AAA+ fragment) (Homo sapiens, UniProt Q00839, D580A, form not given); test: as above; details: pH 7.5, 37 °C, 10 mM MgCl2, 125 mM NaCl, 5 mM DTT; Walker B mutant
T3 construct: gene HNRNPU; AAA+ domain fragment, N-terminal 6xHis in pET32a, E. coli BL21(DE3); exact borders not in text (AAA domain modelled as aa 469-653)

[4] = biological target: T4, FLAG-tagged full-length SAF-A (Homo sapiens, UniProt Q00839); test: stabilisation of immuno-purified oligomer, native PAGE western blot; details: 1 mM nucleotide, 37 °C, 10 mM DTT to reverse cross-links
T4 construct: gene HNRNPU
T4 sequence (Q00839 2-806 isoform Q00839-2): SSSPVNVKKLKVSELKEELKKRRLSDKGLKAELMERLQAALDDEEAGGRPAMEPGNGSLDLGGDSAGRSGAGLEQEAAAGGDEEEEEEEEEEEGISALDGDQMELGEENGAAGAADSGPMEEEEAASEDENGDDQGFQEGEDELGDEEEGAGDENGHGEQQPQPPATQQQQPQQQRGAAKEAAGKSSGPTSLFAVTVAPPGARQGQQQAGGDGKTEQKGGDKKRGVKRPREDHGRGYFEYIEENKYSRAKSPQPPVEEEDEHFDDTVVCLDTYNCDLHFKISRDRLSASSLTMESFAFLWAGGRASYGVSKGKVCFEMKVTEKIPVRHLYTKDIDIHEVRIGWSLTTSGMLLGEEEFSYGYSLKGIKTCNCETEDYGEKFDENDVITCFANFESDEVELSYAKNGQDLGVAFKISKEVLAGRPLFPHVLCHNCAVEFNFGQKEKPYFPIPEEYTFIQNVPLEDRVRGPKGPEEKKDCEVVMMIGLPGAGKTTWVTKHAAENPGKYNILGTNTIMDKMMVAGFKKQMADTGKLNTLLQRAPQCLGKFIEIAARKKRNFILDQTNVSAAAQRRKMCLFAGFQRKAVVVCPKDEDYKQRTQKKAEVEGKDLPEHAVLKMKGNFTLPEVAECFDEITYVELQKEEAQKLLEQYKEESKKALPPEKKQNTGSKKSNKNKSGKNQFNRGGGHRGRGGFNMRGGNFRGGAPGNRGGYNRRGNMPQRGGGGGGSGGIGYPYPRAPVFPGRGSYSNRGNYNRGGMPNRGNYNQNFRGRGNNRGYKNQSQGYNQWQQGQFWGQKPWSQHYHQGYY

T2 sequence (Q00839 488-672 limits assumed): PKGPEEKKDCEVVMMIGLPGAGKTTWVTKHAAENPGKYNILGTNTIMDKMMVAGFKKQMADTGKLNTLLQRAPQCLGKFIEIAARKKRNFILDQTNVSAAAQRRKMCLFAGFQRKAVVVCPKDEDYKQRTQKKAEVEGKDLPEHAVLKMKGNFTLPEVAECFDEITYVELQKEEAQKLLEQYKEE
T1 sequence (Q00839 507-691 K510A limits assumed): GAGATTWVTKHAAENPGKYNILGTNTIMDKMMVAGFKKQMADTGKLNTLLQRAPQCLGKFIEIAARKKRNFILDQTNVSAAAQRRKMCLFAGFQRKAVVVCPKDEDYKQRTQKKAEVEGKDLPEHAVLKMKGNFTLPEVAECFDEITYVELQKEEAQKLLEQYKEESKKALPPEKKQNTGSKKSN
T3 sequence (Q00839 507-691 D580A limits assumed): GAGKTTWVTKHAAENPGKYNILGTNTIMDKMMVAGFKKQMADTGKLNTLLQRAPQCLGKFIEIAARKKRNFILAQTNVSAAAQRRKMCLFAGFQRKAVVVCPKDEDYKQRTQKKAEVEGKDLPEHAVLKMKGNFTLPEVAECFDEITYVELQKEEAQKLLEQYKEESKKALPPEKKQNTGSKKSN

Structure (SMILES): Nc1ncnc2c1ncn2[C@@H]1O[C@H](COP(=O)(O)OP(=O)(O)OP(=O)(O)O)[C@@H](O)[C@H]1O [ATP]
- ATP binding abrogated (no binding) [1]: Mutation of the Walker A motif abrogated ATP binding
- Kd [2]: 38 µM
- Kd [3]: 29 µM
- stabilisation of immuno-purified oligomer, native PAGE western blot [4]: ATP or ATPγS stabilized the oligomers
